Laboratory results published in patent US20250230155A1 (Vanderbilt University, priority 2021, published 2025).
Each block holds one molecule with its values, some of them ahead of it.

Target: T1, human mAChR M4 (Homo sapiens, UniProt P08173)
T1 construct: expressed in transfected cells
T1 sequence (P08173 1-479): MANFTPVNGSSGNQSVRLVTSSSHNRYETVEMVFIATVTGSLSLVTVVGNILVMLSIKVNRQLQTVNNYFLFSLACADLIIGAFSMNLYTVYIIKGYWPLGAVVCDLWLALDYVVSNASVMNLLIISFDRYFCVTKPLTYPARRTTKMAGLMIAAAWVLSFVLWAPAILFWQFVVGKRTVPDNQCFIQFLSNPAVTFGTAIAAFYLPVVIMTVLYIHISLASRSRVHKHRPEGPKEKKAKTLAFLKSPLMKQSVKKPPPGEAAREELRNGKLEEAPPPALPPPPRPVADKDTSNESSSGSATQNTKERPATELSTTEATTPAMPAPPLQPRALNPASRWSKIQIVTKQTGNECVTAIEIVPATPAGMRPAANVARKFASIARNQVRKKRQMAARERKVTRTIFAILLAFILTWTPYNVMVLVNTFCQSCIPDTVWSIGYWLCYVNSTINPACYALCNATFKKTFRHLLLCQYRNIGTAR
Test: mAChR M4 cell-based functional assay (calcium mobilization, CHO-K1 hM4-Gqi5 cells)
Details: for Emax at 30 µM: CHO-K1, % ACh maximum at 30 μM, human M4; for EC50: positive allosteric modulator activity, increase in the EC20 acetylcholine response, CHO-K1 hM4-Gqi5 cells, read-out: Human M4 EC50
In short: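 Fluorescent calcium read-out (Fluo-4 AM, FDSS, 1 Hz) in hM4-Gqi5 CHO-K1 cells, 11-point 1:3 compound series. Agonism scored on compound addition, PAM activity as increase of the 144 s EC20 acetylcholine response, antagonism as decrease of the 230 s EC80 response; four-parameter logistic fits give EC50 and Emax.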

SMILES: Cc1cc(C#N)cnc1N1CCc2ncc(-c3ccns3)cc2C1 [compound 291, 6-(3-(isothiazol-5-yl)-7,8-dihydro-1,6-naphthyridin-6(5H)-yl)-5-methylnicotinonitrile]
Emax at 30 µM: 96%
EC50: 88 nM

SMILES: Cc1c(C#N)nnc(N2CCc3ncc(-c4ccns4)cc3C2)c1C [compound 292, 6-(3-(isothiazol-5-yl)-7,8-dihydro-1,6-naphthyridin-6(5H)-yl)-4,5-dimethylpyridazine-3-carbonitrile]
Emax at 30 µM: 86%
EC50: 163 nM

SMILES: Cc1nn(C)cc1-c1cnc2c(c1)CN(c1nnc(C#N)c(C)c1C)CC2 [compound 295, 6-(3-(1,3-dimethyl-1H-pyrazol-4-yl)-7,8-dihydro-1,6-naphthyridin-6(5H)-yl)-4,5-dimethylpyridazine-3-carbonitrile]
Emax at 30 µM: 95%
EC50: 485 nM

Now from value to molecule:

Emax at 30 µM: 85%
EC50: 354 nM
SMILES: Cc1ncc(-c2cnc3c(c2)CN(c2nnc(C#N)c(C)c2C)CC3)s1 [compound 293, 4,5-dimethyl-6-(3-(2-methylthiazol-5-yl)-7,8-dihydro-1,6-naphthyridin-6(5H)-yl)pyridazine-3-carbonitrile]

Emax at 30 µM: 83%
EC50: 292 nM
SMILES: Cc1nc(C)c(-c2cnc3c(c2)CN(c2nnc(C#N)c(C)c2C)CC3)s1 [compound 294, 6-(3-(2,4-dimethylthiazol-5-yl)-7,8-dihydro-1,6-naphthyridin-6(5H)-yl)-4,5-dimethylpyridazine-3-carbonitrile]
